Here are results for three compounds from paper PMC10338474 (Nature Communications, 2023).

Values joined by “and” are separate entries in the source; they are usually repeats but may differ in a detail not shown here. Equal entries are not always repeated. “Also recorded” adds a separate entry of the source. Where two headings read alike, the source gives them in different places.

The target in experiment [1] is T1, EPAC1^FL (Homo sapiens, UniProt O95398).
T1 construct: Human full-length EPAC1 (EPAC1^FL) was cloned into a pET28a vector (6xHis tag in N-terminus); made in house; host or cells: E. coli BL21 (DE3) pG-KJE8
T1 sequence (O95398 1-881 isoform O95398-3): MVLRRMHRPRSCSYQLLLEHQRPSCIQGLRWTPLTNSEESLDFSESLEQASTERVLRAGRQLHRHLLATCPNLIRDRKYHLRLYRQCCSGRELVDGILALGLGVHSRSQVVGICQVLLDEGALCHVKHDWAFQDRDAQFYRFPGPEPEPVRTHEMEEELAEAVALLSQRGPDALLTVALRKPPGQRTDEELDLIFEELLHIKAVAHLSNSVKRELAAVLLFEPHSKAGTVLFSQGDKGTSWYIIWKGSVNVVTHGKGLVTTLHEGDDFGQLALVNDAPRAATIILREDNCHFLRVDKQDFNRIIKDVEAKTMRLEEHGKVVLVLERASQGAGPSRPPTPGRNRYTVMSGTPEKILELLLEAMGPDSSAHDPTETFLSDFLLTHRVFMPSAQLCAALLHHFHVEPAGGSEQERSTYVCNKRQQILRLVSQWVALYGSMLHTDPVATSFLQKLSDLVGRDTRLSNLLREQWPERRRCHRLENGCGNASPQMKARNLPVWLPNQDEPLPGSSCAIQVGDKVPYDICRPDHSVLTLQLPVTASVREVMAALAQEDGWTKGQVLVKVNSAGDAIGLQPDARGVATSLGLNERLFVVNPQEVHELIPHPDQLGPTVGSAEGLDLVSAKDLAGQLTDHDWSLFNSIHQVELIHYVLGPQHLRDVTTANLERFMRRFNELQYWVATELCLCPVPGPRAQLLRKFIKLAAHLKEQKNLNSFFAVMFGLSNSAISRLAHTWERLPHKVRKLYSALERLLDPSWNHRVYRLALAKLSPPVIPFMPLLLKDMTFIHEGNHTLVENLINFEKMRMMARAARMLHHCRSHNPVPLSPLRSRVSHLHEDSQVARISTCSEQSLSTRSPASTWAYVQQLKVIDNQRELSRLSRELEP
The experiment can be described thus: Nucleotide exchange kinetics assay (BODIPY-GDP dissociation from Rap1) with full-length EPAC1. The class given is biochemical. The note with it: for increase in affinity, PM liposomes vs solution: ratio of apparent KD. The protocol:
Liposomes were added at 100 μM (total lipids).
Nonlinear regression based on a straight line model was performed with GraphPad Prism. EPAC1 pseudo first order catalytic efficiencies kcat/KM were deduced from the slopes of the curves, according to the Michaelis–Menten formalism. […] Nonlinear regression based on a sigmoidal model was performed with GraphPad Prism. KD and kmax were deduced from the EC50 and top values of the curves, respectively.

Experiment [2] has as its system EPAC1. The note with it: cited from earlier work.
For experiment [3], the target named is EPAC1^CNB-GEF (Homo sapiens, UniProt O95398). The note with it: in solution; Supplementary Fig. 4d. The protocol:
For kinetics assays, the Rap1 GTPase was loaded with BODIPY-FL-GDP (Jena Bioscience) prior to nucleotide exchange by incubating 50 μM Rap1 with 250 μM BODIPY-GDP and 10 mM EDTA for 30 min at room temperature. Nucleotide exchange was stopped by the addition of 75 mM MgCl2. Removal of excess nucleotides and buffer exchange were done on a PD SpinTrap G-25 (GE HealthCare Life Science). Nucleotide exchange kinetics were monitored by following the decay of BODIPY-GDP fluorescence upon replacement by GTP, using excitation and emission wavelengths of 485 and 530 nm, respectively. Measurements were carried out at 30 °C on a Cary Eclipse fluorimeter (Varian) under stirring in 800 μL cuvettes, or in microplate wells (150 μL) on a FLEXstation (Molecular Devices). […] Liposomes were added at 100 μM (total lipids). For kinetics in solution, kobs values were determined from a mono-exponential fit. […] In this case, kobs values corresponding to the fast component were used.

For experiment [4], the target named is T1, EPAC1^FL. The experiment can be described thus: Liposome flotation binding assay of EPAC1^FL.
Protocol: Liposomes were prepared as described in ref. [61] in a buffer containing 50 mM HEPES pH 7.4 and 120 mM potassium acetate. All liposomes contain phosphatidylethanolamine (PE) at 20% and other lipids as indicated, and are completed to 100% by phosphatidylcholine (PC). […] All liposomes were extruded through a 0.2-μm-pore size filter before use, and size distributions were checked by dynamic light scattering (DLS) on a DynaPro instrument (Wyatt). The binding of proteins to liposomes was assayed by liposome flotation as described in ref. [57]. […] 1/8 of the bottom and top fractions were analyzed by SDS-PAGE using Coomassie blue staining. Quantification of the intensity of the bands was done using Image Lab^TM v6.0 on a ChemiDoc MP Imaging System (Biorad).
Experiment [5] deals with EPAC1^α-CNB-GEF (Homo sapiens, UniProt O95398). The note with it: for Dmax (largest protein dimension): EPAC1^α-CNB-GEF with the single ligand (cAMP 1 mM/200 μM or CE3F4 100 μM racemic mix). The method, then: All small angle X-ray scattering (SAXS) data were obtained from size exclusion chromatography-SAXS (SEC-SAXS) experiments on the SWING beamline (SOLEIL synchrotron, France), using the EPAC1^α-CNB-GEF construct. EPAC1 was used at a concentration of 60 μM to obtain high SAXS intensities. Samples were injected on high-performance liquid chromatography (HPLC) size exclusion column (BioSEC-3 300 Å, Agilent Technologies, Inc.) equilibrated with the elution buffer (20 mM Tris-HCl pH 8.0, 150 mM NaCl, 0.5 mM EDTA). […] Data reduction to absolute units, frame averaging, and subtraction were done using the FOXTROT program suite (SOLEIL synchrotron). Frames corresponding to the high-intensity fractions of the peak and having a constant radius of gyration (Rg) within error were averaged. […] Rg values were evaluated by Guinier Wizard using the data within the range of Guinier approximation sRg < 1.3 and by Distance Distribution Wizard, both of which are modules of the PRIMUS program. The maximum distance Dmax was estimated with PRIMUS and refined by trial and error with GNOM. The distance distribution functions were calculated with GNOM. SAXS profiles were compared with DATCMP (ATSAS suite).

The target of experiment [6] is Rap1/EPAC1^α-CNB-GEF complex (Homo sapiens, UniProt O95398). The note with it: cAMP 1 mM, EDTA, DMSO. The method, then: EPAC1^α-CNB-GEF was used at 25 μM in all experiments. […] Proteins samples were injected into a 25 mL Superdex 200 gel filtration column (GE Healthcare) at 0.5 mL/min. Fractions were analyzed by SDS-PAGE.
The target in experiment [7] is CNB domain-containing EPAC1 constructs (Homo sapiens, UniProt O95398). The note with it: Supplementary Fig. 2c.
Protocol: Liposomes were prepared as described in ref. [61] in a buffer containing 50 mM HEPES pH 7.4 and 120 mM potassium acetate. All liposomes contain phosphatidylethanolamine (PE) at 20% and other lipids as indicated, and are completed to 100% by phosphatidylcholine (PC). PM liposomes contain 48% PC, 20% PE, 10% phosphatidylserine (PS), 20% cholesterol, and 2% phosphatidylinositol-4,5-bisphosphate (PIP2). All liposomes were extruded through a 0.2-μm-pore size filter before use, and size distributions were checked by dynamic light scattering (DLS) on a DynaPro instrument (Wyatt). The binding of proteins to liposomes was assayed by liposome flotation as described in ref. [57]. […] 1/8 of the bottom and top fractions were analyzed by SDS-PAGE using Coomassie blue staining. Quantification of the intensity of the bands was done using Image Lab^TM v6.0 on a ChemiDoc MP Imaging System (Biorad).
Experiment [8] deals with Rap1 GTPase in cardiomyocytes. Also noted: method as in PMID 23139415. As to conditions: cited from earlier work.
Experiment [9] concerns arrhythmia in mice. As to conditions: cited from earlier work.
Experiment [10] deals with arrhythmia in rats. As to conditions: cited from earlier work.
For experiment [11], the target named is EPAC1^GEF (Homo sapiens, UniProt O95398). As to conditions: cited from earlier work.
Experiment [12] relates to isolated CNB domain of EPAC1. The note with it: NMR; without competing with cAMP; cited from earlier work.
Experiment [13] relates to EPAC1^α-CNB-GEF. The note with it: cited from earlier work.

As usually defined, the Kd is a measure of binding affinity in units of concentration. A low value points to tighter binding. In the case of `CO[C@@H]1[C@@H]2OP(=O)(O)OC[C@H]2O[C@H]1n1c(Sc2ccc(Cl)cc2)nc2c(N)ncnc21` [compound 007, 8-(4-chlorophenylthio)−2’-O-methyl-cAMP], in experiment [1], the “increase of kmax, PM liposomes vs solution” value was 12.3 fold and 12 fold; the “increase in affinity, PM liposomes vs solution” value is listed as 107 fold. The same compound registered a Kd in experiment [1] (in solution, Supplementary Table 5 mean) of 1.57 µM. In addition, the “maximal activity (kmax) compared to cAMP” value in experiment [2] (in solution, in vitro) is reported as “threefold; also recorded: three times higher”.
Turning to `Nc1ncnc2c1ncn2[C@@H]1O[C@@H]2COP(=O)(O)O[C@H]2[C@H]1O` [cAMP, cyclic adenosine monophosphate], in experiment [1], the “increase in affinity, PM liposomes vs solution” value is 278 fold. The “effect of cAMP on intrinsic GEF activity of EPAC1^CNB-GEF” value in experiment [3] is on record as “increased”. The “effect of addition of cAMP on EPAC1^FL binding to PS-PIP2 liposomes with cholesterol” value in experiment [4] (flotation assay, 1 mM cAMP) was “no discernible effect”. Further, the “Dmax (largest protein dimension)” value in experiment [5] came out at 130 Å. Also, in experiment [5] (single ligand), the “Rg, Guinier analysis” value was 34.91 Å and the “Rg, P(r) analysis” value was 35.53 Å. Also, the “formation of the Rap1-EPAC1^α-CNB-GEF complex” value in [6] was “readily observed”. Also, the “effect of cAMP on binding of CNB domain-containing EPAC1 constructs to PM liposomes” value in experiment [7] was “does not increase”. Besides, the EC50 in experiment [2] (read-out: half-maximal activation of EPAC1) is […].
For `CC1CCc2c(cc(Br)c(F)c2Br)N1C=O` (stereo not shown) [CE3F4], the “Binding (%) of EPAC1^FL to PM liposomes, DMSO set to 100%” value in experiment [4] (Fig. 4f left, without cAMP, CE3F4 50 μM) is on record as 81%. The “Rg, Guinier analysis” value in experiment [5] (+cAMP +CE3F4) turned out to be 33.41 Å; in experiment [5] (single ligand) it was 32.58 Å. The results for the “Rg, P(r) analysis” value in experiment [5] (+cAMP +CE3F4) and in experiment [5] (single ligand) were 33.84 Å and 32.86 Å, respectively. In experiment [5], the “Dmax (largest protein dimension)” value is recorded as 114 Å. In addition, the “activation of the Rap1 GTPase in cardiomyocytes” value in [8] is “efficiently inhibits”. The arrhythmia entry in experiment [9] and in [10] was “prevents” in each case. In addition, the “inhibition of the GEF domain of EPAC1 alone” value in [11] was “does not inhibit”. The “binding to the isolated CNB domain” value in experiment [12] was “binds”. Besides, the “in vitro activation of Rap1 by EPAC1^α-CNB-GEF” value in experiment [13] is “inhibits”.
